The test has as its target Multidrug resistance-associated protein 1 (Homo sapiens, UniProt P33527). The test can be described thus: Inhibitory concentration against multidrug resistance associated protein 1.

Multidrug resistance-associated protein 1, sequence (P33527 whole entry): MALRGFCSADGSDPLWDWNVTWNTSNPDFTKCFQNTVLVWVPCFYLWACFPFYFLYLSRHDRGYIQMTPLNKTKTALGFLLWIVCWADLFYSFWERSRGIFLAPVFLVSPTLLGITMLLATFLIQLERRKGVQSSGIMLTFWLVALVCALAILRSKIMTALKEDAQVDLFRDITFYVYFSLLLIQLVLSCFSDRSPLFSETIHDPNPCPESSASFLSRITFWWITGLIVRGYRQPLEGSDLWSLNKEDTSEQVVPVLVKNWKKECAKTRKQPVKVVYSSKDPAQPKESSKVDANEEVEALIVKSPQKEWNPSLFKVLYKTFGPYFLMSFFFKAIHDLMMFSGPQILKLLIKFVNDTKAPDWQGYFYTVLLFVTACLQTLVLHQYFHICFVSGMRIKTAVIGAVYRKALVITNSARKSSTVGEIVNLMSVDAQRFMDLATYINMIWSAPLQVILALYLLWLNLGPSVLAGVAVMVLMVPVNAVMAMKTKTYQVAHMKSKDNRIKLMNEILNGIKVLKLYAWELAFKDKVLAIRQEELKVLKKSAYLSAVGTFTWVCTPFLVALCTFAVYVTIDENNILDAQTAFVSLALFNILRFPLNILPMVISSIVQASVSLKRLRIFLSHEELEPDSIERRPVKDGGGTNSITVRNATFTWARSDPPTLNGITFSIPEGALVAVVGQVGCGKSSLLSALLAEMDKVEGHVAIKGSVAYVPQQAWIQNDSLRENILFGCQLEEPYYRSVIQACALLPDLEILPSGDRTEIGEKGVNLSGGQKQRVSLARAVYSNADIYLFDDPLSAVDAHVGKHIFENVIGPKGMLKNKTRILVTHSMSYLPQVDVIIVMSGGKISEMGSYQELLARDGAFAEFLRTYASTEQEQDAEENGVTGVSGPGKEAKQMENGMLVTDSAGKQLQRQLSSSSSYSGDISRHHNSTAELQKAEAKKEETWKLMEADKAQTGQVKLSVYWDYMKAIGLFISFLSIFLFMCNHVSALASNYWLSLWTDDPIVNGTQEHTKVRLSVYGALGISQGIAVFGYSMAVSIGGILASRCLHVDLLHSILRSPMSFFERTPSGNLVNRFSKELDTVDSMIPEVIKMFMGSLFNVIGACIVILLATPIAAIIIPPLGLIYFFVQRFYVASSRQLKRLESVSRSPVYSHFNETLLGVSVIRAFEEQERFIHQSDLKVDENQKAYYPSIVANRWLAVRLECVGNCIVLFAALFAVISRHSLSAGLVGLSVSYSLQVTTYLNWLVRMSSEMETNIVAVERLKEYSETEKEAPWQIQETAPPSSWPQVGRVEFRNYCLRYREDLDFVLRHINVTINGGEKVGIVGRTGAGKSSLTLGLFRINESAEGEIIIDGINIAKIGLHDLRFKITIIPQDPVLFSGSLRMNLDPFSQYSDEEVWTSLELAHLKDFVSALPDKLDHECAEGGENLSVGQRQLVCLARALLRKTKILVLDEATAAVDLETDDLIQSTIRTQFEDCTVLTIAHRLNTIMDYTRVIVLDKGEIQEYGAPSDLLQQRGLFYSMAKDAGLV

In turn, `Cc1cnc2c(c1C(N)=O)c1ncnc(N3CCN(CCc4ccc(F)c(F)c4)CC3)c1n2C` came in with a half-maximal inhibitory concentration (IC50) of less than 250 nM. As for `N#Cc1c2n(c3c(N4CCN(S(=O)(=O)Cc5ccccc5)CC4)ncnc13)CCCC2`, the IC50 is not below 250 nM. `N#Cc1c2n(c3c(N4CCN(CCc5ccc(F)c(F)c5)CC4)nc(-c4cccnc4)nc13)CCCC2`: the IC50 is less than 250 nM. With `N#Cc1c2n(c3c(NCCN4CCc5ccccc5C4)ncnc13)CCCC2`, the IC50 is not below 250 nM. As to `N#Cc1c2n(c3c(N4CCN(CC(=O)c5ccccc5)CC4)ncnc13)CCCC2`, the IC50 was not below 250 nM. `N#Cc1c2n(c3c(N4CCN(CCc5ccc(F)c(F)c5)CC4)ncnc13)CCCC2` showed an IC50 of less than 250 nM. In turn, `CN(CCc1ccccc1)c1ncnc2c(C#N)c3n(c12)CCCC3` registered a concentration for half-maximal inhibition (IC50) not below 250 nM.

For `N#Cc1c2n(c3c(N4CCN(CCc5ccccc5Cl)CC4)ncnc13)CCCC2`, the IC50 was not below 250 nM. Compound `N#Cc1c2n(c3c(NCCc4ccccc4)ncnc13)CCCC2` registered a half-inhibitory concentration (IC50) not below 250 nM. `COc1cccc(CCN2CCN(c3ncnc4c(C#N)c5n(c34)CCCC5)CC2)c1` showed a concentration for half-maximal inhibition (IC50) not below 250 nM. The compound `Cc1nc(-c2c3n(c4c(N5CCN(CCc6ccccc6)CC5)ncnc24)CCCC3)sc1C` displayed a half-inhibitory concentration (IC50) not below 250 nM. The same measure for `COC(=O)c1c2n(c3c(N4CCN(CCc5ccccc5)CC4)ncnc13)CCCC2`: not below 250 nM. `N#Cc1c2n(c3c(N4CCN(CCc5ccc(F)c(F)c5)CC4)nc(-c4ccncc4)nc13)CCCC2` registered an IC50 of less than 250 nM. For the compound `COc1ccc(CCN2CCN(c3ncnc4c(C#N)c5n(c34)CCCC5)CC2)cc1`, the IC50 is not below 250 nM. `CCC(=O)c1c2n(c3c(N4CCN(CCc5ccccc5)CC4)ncnc13)CCCC2` showed a half-inhibitory concentration (IC50) not below 250 nM. For `N#Cc1c2n(c3c(N4CCN(CCc5ccc(Cl)cc5)CC4)ncnc13)CCCC2`, the half-inhibitory concentration (IC50) is not below 250 nM. To `Cc1ccccc1-c1nc(N2CCN(CCc3ccc(F)c(F)c3)CC2)c2c(n1)c(C#N)c1n2CCCC1` belongs not below 250 nM; to `N#Cc1c2n(c3c(N4CCN(CCc5ccccc5)CC4)nc(-c4ccccc4)nc13)CCCC2`, not below 250 nM; to `CC(=O)Nc1ccc(-c2nc(N3CCN(CCc4ccccc4)CC3)c3c(n2)c(C#N)c2n3CCCC2)cc1`, not below 250 nM.

Turning to `Cc1cnc2c(c1C#N)c1ncnc(N3CCN(CCc4ccc(F)c(F)c4)CC3)c1n2C`, the concentration for half-maximal inhibition (IC50) was not below 250 nM. In turn, `N#Cc1c2n(c3c(N4CCN(CCc5c[nH]c6ccccc56)CC4)ncnc13)CCCC2` had a half-inhibitory concentration (IC50) not below 250 nM. With `O=C(c1ccccc1)c1c2n(c3c(N4CCN(CCc5ccccc5)CC4)ncnc13)CCCC2`, the IC50 is not below 250 nM. `N#Cc1c2n(c3c(NS(=O)(=O)Cc4ccccc4)ncnc13)CCCC2`: the 50% inhibitory concentration (IC50) is not below 250 nM. The compound `Cc1c([N+](=O)[O-])nc2c(c1C(N)=O)c1ncnc(N3CCN(CCc4ccc(F)c(F)c4)CC3)c1n2C` registered a 50% inhibitory concentration (IC50) of less than 250 nM. `N#Cc1c2n(c3c(N4CCN(CCc5ccccc5)CC4)nc(I)nc13)CCCC2`: the 50% inhibitory concentration (IC50) was not below 250 nM. The same measure for `N#Cc1c2n(c3c(N4CCN(CCCc5ccccc5)CC4)ncnc13)CCCC2`: not below 250 nM; for `c1ccc(CCN2CCN(c3ncnc4c(-c5ncccn5)c5n(c34)CCCC5)CC2)cc1`: not below 250 nM; for `N#Cc1c2n(c3c(N4CCN(CCc5cccc(Cl)c5)CC4)ncnc13)CCCC2`: not below 250 nM. For `N#Cc1c2n(c3c(N4CCN(CCc5cccc([N+](=O)[O-])c5)CC4)ncnc13)CCCC2`, the IC50 was not below 250 nM.

Compound `N#Cc1c2n(c3c(N4CCN(CCc5ccc([N+](=O)[O-])cc5)CC4)ncnc13)CCCC2` returned an IC50 not below 250 nM.

For the compound `N#Cc1c2n(c3c(N4CCN(CCc5ccccc5[N+](=O)[O-])CC4)ncnc13)CCCC2`, the half-maximal inhibitory concentration (IC50) is not below 250 nM. Regarding `CCOC(=O)Cn1c2cccc(C(N)=O)c2c2ncnc(N3CCN(CCc4ccc(F)c(F)c4)CC3)c21`, the half-maximal inhibitory concentration (IC50) is less than 250 nM. `O=C(NCc1ccccn1)c1c2n(c3c(N4CCN(CCc5ccc(F)c(F)c5)CC4)ncnc13)CCCC2` had a half-inhibitory concentration (IC50) of less than 250 nM.

`NC(=O)c1c2n(c3c(N4CCN(CCc5ccc(F)c(F)c5)CC4)ncnc13)CCCC2` showed an IC50 of less than 250 nM.

`Cc1nc(-c2c3n(c4c(N5CCN(CCc6ccccc6)CC5)ncnc24)CCCC3)no1` came in with a half-inhibitory concentration (IC50) not below 250 nM. As for `COc1cccc(CNC(=O)c2c3n(c4c(N5CCN(CCc6ccc(F)c(F)c6)CC5)ncnc24)CCCC3)c1OC`, the IC50 was less than 250 nM.

The term IC50 denotes the concentration that inhibits the measured activity by half. A higher IC50 goes with lower potency.

The record behind these values is ChEMBL document CHEMBL1143495, “Topological model for the prediction of MRP1 inhibitory activity of pyrrolopyrimidines and templates derived from pyrrolopyrimidine” (Bioorg Med Chem Lett, 2005).
